Test results: patent publication US20220348558A1, “INHIBITORS OF ENCEPHALITIC ALPHAVIRUSES” (priority 2019, published 2022)

Columns and labels:
[1] = tested on: VEEV TC83; assay: microbe, parasite or virus in culture; type: cell-based; settings: Venezuelan equine encephalitis virus, Vero 76, 48 h, read-out: VEEV TC83 EC50 nM
[2] = tested on: WEEV California; assay: microbe, parasite or virus in culture; type: cell-based; settings: Western equine encephalitis virus, Vero 76, 48 h, read-out: WEEV California EC50 nM

SMILES | EC50 [1] [nM] | EC50 [2] [nM]
COc1ccc(-n2c(C3CCCN3)nc3c(-c4ccc(C#N)nc4)cc(C#N)cc3c2=O)cc1F (stereo not shown) [Example 126, 8-(6-cyanopyridin-3-yl)-3-(3-fluoro-4-methoxyphenyl)-4-oxo-2-(pyrrolidin-2-yl)-3,4-dihydroquinazoline-6-carbonitrile] | 1 to 50 | 51 to 150
COc1ccc(-n2c(C3CCCN3)nc3c(CCc4ccc(C)nc4)cc(C#N)cc3c2=O)cc1F (stereo not shown) [Example 195, 3-(3-Fluoro-4-methoxyphenyl)-8-(2-(6-methylpyridin-3-yl)ethyl)-4-oxo-2-(pyrrolidin-2-yl)-3,4-dihydroquinazoline-6-carbonitrile] | 51 to 150 | 51 to 150
COc1ccc(-n2c(C3CCCN3)nc3c(-c4cnc(C)c(C)c4)cc(C#N)cc3c2=O)cc1F (stereo not shown) [Example 137, 8-(5,6-dimethylpyridin-3-yl)-3-(3-fluoro-4-methoxyphenyl)-4-oxo-2-(pyrrolidin-2-yl)-3,4-dihydroquinazoline-6-carbonitrile] | 1 to 50 | 1 to 50
COc1cc(F)ccc1-n1c([C@H]2CCCN2)nc2ccc([N+](=O)[O-])cc2c1=O [Example 26, (R)-3-(2-methoxy-4-fluorophenyl)-6-nitro-2-(pyrrolidin-2-yl) quinazolin-4 (3H)-one] | > 1000 | > 1000
COc1ccc(-n2c(-c3ccon3)nc3c(-c4ccc(C)nc4)cc(C#N)cc3c2=O)cc1F [Example 199, 3-(3-fluoro-4-methoxyphenyl)-2-(isoxazol-3-yl)-8-(6-methylpyridin-3-yl)-4-oxo-3,4-dihydroquinazoline-6-carbonitrile] | 501 to 1000 | > 1000
COc1ccc(-n2c([C@@H]3CCNC3)nc3ccc([N+](=O)[O-])cc3c2=O)cc1 [Example 19, (R)-3-(4-methoxyphenyl)-6-nitro-2-(pyrrolidin-3-yl)quinazolin-4 (3H)-one] | 1 to 50 | 151 to 500
O=c1c2cc([N+](=O)[O-])ccc2nc([C@@H]2CCCN2)n1-c1ccccc1 [Example 5, (S)-6-nitro-3-phenyl-2-(pyrrolidin-2-yl) quinazolin-4 (3H)-one] | 151 to 500 | 151 to 500
COc1ccc(-n2c([C@@H]3CCCN3)nc3c(C)cc([N+](=O)[O-])cc3c2=O)cc1F [Example 69, (S)-3-(3-fluoro-4-methoxyphenyl)-8-methyl-6-nitro-2-(pyrrolidin-2-yl) quinazolin-4 (3H)-one] | 151 to 500 | 51 to 150
COc1ccc(-n2c([C@H]3CCCN3)nc3c(C)cc(C#N)cc3c2=O)cc1 [Example 50, (R)-3-(4-methoxyphenyl)-8-methyl-4-oxo-2-(pyrrolidin-2-yl)-3,4-dihydroquinazoline-6-carbonitrile] | 1 to 50 | 1 to 50
COc1ccc(-n2c(C3CCCN3)nc3ccc([N+](=O)[O-])cc3c2=O)cc1 (stereo not shown) [Example 8, 3-(4-methoxyphenyl)-6-nitro-2-(pyrrolidin-2-yl) quinazolin-4 (3H)-one] | 1 to 50 | 1 to 50
COc1ccc(-n2c([C@H]3CCCN3C)nc3c(-c4cn(C)cn4)cc(C#N)cc3c2=O)cc1F [Example 98, (R)-3-(3-fluoro-4-methoxyphenyl)-8-(1-methyl-1H-imidazol-4-yl)-2-(1-methylpyrrolidin-2-yl)-4-oxo-3,4-dihydroquinazoline-6-carbonitrile] | 1 to 50 | 1 to 50
CNCc1nc2ccc([N+](=O)[O-])cc2c(=O)n1-c1ccc(OC)cc1 [Example 210, 3-(4-methoxyphenyl)-2-((methylamino)methyl)-6-nitroquinazolin-4 (3H)-one] | > 1000 | > 1000
COc1c(F)cc(-n2c(C3CCCN3)nc3c(-c4ccc(C(C)(C)O)cc4)cc(C#N)cc3c2=O)cc1F (stereo not shown) [Example 171, 3-(3,5-difluoro-4-methoxyphenyl)-8-(4-(2-hydroxypropan-2-yl)phenyl)-4-oxo-2-(pyrrolidin-2-yl)-3,4-dihydroquinazoline-6-carbonitrile] | 51 to 150 | 51 to 150
CN[C@H](C)c1nc2ccc([N+](=O)[O-])cc2c(=O)n1-c1ccc(OC)cc1 [Example 207, (R)-3-(4-methoxyphenyl)-2-(1-(methylamino)ethyl)-6-nitroquinazolin-4 (3H)-one] | 51 to 150 | 151 to 500
COc1ccc(-n2c([C@H]3C[C@H](F)CN3)nc3c(C)cc(C#N)cc3c2=O)cc1F [Example 54, 3-(3-fluoro-4-methoxyphenyl)-2-((2R,4S)-4-fluoropyrrolidin-2-yl)-8-methyl-4-oxo-3,4-dihydroquinazoline-6-carbonitrile] | 151 to 500 | 151 to 500
COc1ccc(-n2c(C3CCCN3)nc3c(-c4ccc(OC(F)(F)F)cc4)cc(C#N)cc3c2=O)cc1F (stereo not shown) [Example 151, 3-(3-Fluoro-4-methoxyphenyl)-4-oxo-2-(pyrrolidin-2-yl)-8-(4-(trifluoromethoxy)phenyl)-3,4-dihydroquinazoline-6-carbonitrile] | 1 to 50 | 1 to 50
COc1ccc(-n2c([C@H]3CCN(C)C3)nc3c(C)cc([N+](=O)[O-])cc3c2=O)cc1F [Example 66, (S)-3-(3-fluoro-4-methoxyphenyl)-8-methyl-2-(1-methylpyrrolidin-3-yl)-6-nitroquinazolin-4 (3H)-one] | 151 to 500 | 151 to 500
COc1ccc(-n2c([C@H]3CCCN3)nc3c(-c4ccc(C(F)(F)F)nc4)cc([N+](=O)[O-])cc3c2=O)cc1F [Example 91, (R)-3-(3-fluoro-4-methoxyphenyl)-6-nitro-2-(pyrrolidin-2-yl)-8-(6-(trifluoromethyl)pyridin-3-yl) quinazolin-4 (3H)-one] | 1 to 50 | 1 to 50
COc1ccc(-n2c([C@H]3CCCN3C)nc3c(-c4ccoc4)cc(C#N)cc3c2=O)cc1F [Example 115, (R)-3-(3-fluoro-4-methoxyphenyl)-8-(furan-3-yl)-2-(1-methylpyrrolidin-2-yl)-4-oxo-3,4-dihydroquinazoline-6-carbonitrile] | 1 to 50 | 1 to 50
COc1ccc(-n2c(C3CCCN3)nc3c(Oc4ccc(C)nc4)cc(C#N)cc3c2=O)cc1F (stereo not shown) [Example 191, 3-(3-fluoro-4-methoxyphenyl)-8-((6-methylpyridin-3-yl)oxy)-4-oxo-2-(pyrrolidin-2-yl)-3,4-dihydroquinazoline-6-carbonitrile] | 1 to 50 | 
COc1ccc(-n2c([C@@H]3C[C@@](O)(C(F)(F)F)CN3)nc3c(-c4ccc(C)nc4)cc(C#N)cc3c2=O)cc1F [Example 192, 3-(3-fluoro-4-methoxyphenyl)-2-((2S,4S)-4-hydroxy-4-(trifluoromethyl)pyrrolidin-2-yl)-8-(6-methylpyridin-3-yl)-4-oxo-3,4-dihydroquinazoline-6-carbonitrile] | 1 to 50 | 
COc1ccc(-n2c([C@@H]3C[C@H](C(F)(F)F)CN3)nc3c(-c4ccc(C)nc4)cc(C#N)cc3c2=O)cc1F (racemic) [Example 190, cis-(±)-3-(3-fluoro-4-methoxyphenyl)-8-(6-methylpyridin-3-yl)-4-oxo-2-((2S,4S)-4-(trifluoromethyl)pyrrolidin-2-yl)-3,4-dihydroquinazoline-6-carbonitrile] | 1 to 50 | 
COc1ccc(-n2c(C3C[C@@H](OC)CN3)nc3c(-c4ccc(C)nc4)cc(C#N)cc3c2=O)cc1F (stereo partly drawn) [Example 120, 3-(3-fluoro-4-methoxyphenyl)-2-((4R)-4-methoxypyrrolidin-2-yl)-8-(6-methylpyridin-3-yl)-4-oxo-3,4-dihydroquinazoline-6-carbonitrile] | 151 to 500 | 
COc1ccc(-n2c(C34CC(CN3)C4)nc3c(-c4ccc(C)nc4)cc(C#N)cc3c2=O)cc1F [Example 178, 2-(2-azabicyclo[2.1.1]hexan-1-yl)-3-(3-fluoro-4-methoxyphenyl)-8-(6-methylpyridin-3-yl)-4-oxo-3,4-dihydroquinazoline-6-carbonitrile] | 1 to 50 | 
COc1ccc(-n2c(C3CCCN3)nc3c(-c4ccc(CO)nc4)cc(C#N)cc3c2=O)cc1F (stereo not shown) [Example 181, 3-(3-fluoro-4-methoxyphenyl)-8-(6-(hydroxymethyl)pyridin-3-yl)-4-oxo-2-(pyrrolidin-2-yl)-3,4-dihydroquinazoline-6-carbonitrile] | 1 to 50 | 
COc1ccc(-n2c([C@H]3CCCN3)nc3c(N4CCC(N5CCOCC5)CC4)cc(C#N)cc3c2=O)cc1F [Example 179, (R)-3-(3-fluoro-4-methoxyphenyl)-8-(4-morpholinopiperidin-1-yl)-4-oxo-2-(pyrrolidin-2-yl)-3,4-dihydroquinazoline-6-carbonitrile] | 1 to 50 | 
COc1ncc(-n2c(C34CC(CN3)C4)nc3c(-c4ccc(C)nc4)cc(C#N)cc3c2=O)cn1 [Example 165, 2-(2-azabicyclo[2.1.1]hexan-1-yl)-3-(2-methoxypyrimidin-5-yl)-8-(6-methylpyridin-3-yl)-4-oxo-3,4-dihydroquinazoline-6-carbonitrile] | > 1000 | 
COc1ccc(-n2c([C@@H]3CC(F)(F)CN3)nc3c(-c4ccc(C)nc4)cc(C#N)cc3c2=O)cc1F [Example 183, (S)-2-(4,4-difluoropyrrolidin-2-yl)-3-(3-fluoro-4-methoxyphenyl)-8-(6-methylpyridin-3-yl)-4-oxo-3,4-dihydroquinazoline-6-carbonitrile] | 151 to 500 | 
COc1c(F)cc(-n2c(C3CCCN3)nc3c(-c4ccc(C(C)(C)O)nc4)cc(C#N)cc3c2=O)cc1F (stereo not shown) [Example 182, 3-(3,5-difluoro-4-methoxyphenyl)-8-(6-(2-hydroxypropan-2-yl)pyridin-3-yl)-4-oxo-2-(pyrrolidin-2-yl)-3,4-dihydroquinazoline-6-carbonitrile] | 1 to 50 | 
COc1c(F)cc(-n2c(C3CCCN3)nc3c(-c4ccc(C(C)=O)nc4)cc(C#N)cc3c2=O)cc1F (stereo not shown) [Example 177, 8-(6-acetylpyridin-3-yl)-3-(3,5-difluoro-4-methoxyphenyl)-4-oxo-2-(pyrrolidin-2-yl)-3,4-dihydroquinazoline-6-carbonitrile] | 1 to 50 | 
